PMC6934184, “Selective DNA-PKcs inhibition extends the therapeutic index of localized radiotherapy and chemotherapy” (The Journal of Clinical Investigation, 2019)

Target: T1, STK24 (MST3) (Homo sapiens, UniProt Q9Y6E0)
T1 construct: purchased Thermo Fisher Scientific (Life Technologies) SelectScreen
Experiment: SelectScreen Z'LYTE
Assay type: biochemical
Outline: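 NU5455 was profiled across the SelectScreen Broad panel of kinase activity and binding assays. Z'LYTE reactions such as CSF1R ran at apparent Km ATP, while the Adapta CAMK1 assay used ATP listed as 10. Values are given as percent.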

T1 sequence (Q9Y6E0 whole entry): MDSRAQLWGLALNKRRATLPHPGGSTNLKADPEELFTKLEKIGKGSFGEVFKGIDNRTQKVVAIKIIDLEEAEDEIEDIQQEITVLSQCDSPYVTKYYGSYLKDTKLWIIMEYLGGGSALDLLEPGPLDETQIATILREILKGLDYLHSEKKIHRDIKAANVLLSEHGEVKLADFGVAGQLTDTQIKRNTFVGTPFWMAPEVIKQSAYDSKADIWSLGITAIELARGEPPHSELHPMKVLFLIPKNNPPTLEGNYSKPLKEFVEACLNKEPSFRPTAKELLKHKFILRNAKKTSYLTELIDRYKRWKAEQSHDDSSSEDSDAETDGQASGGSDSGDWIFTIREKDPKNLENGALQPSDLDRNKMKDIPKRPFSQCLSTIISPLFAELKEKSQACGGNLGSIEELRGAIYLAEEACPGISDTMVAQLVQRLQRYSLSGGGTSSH

## CN(C(=O)CN1CCOCC1)c1ccc2sc3c(-c4cccc5c(=O)cc(N6CC7CCC(C6)O7)oc45)cccc3c2c1 [NU5455]
  inhibition at 1 µM: 4.1%
